Reference: patent publication US20260014184A1, “ADENOSINE DERIVATIVES FOR USE IN THE TREATMENT OF NEURODEGENERATIVE DISORDERS AND CANCER” (UNIVERSITY COLLEGE CARDIFF CONSULTANTS LIMITED, priority 2022, published 2026)
Entries after “also recorded” stand apart in the source; their conditions may differ. Where two headings read alike, the source gives them in different places.

Tests used:
[1] = system: ubiquitin Ser65 phosphorylation; test: Ubiquitin Ser65 phosphorylation in astrocytes with or without valinomycin; format: cell-based; conditions: for ubiquitin Ser65 phosphorylation after pre-treatment followed by valinomycin, compared to valinomycin alone: 50 μM 24 h, 50 nM valinomycin for 5 h; for ubiquitin Ser65 phosphorylation, compound alone: 50 μM, 24 h
Procedure: Briefly, astrocytes were treated with 50 μM of the nucleobase kinetin, nucleosides 9a and 9c or DMSO for 24 h and 5 h prior to lysis, the samples were treated with 50 nM valinomycin, a mitochondrial uncoupler.

[2] = system: HeLa cells transfected with YFP-parkin; test: Immunofluorescence for YFP-parkin localisation and TOM20 (mitochondrial fragmentation); format: cell-based
Procedure: (§1) Cells were seeded on PerkinElmer PhenoPlate 96-well plates, followed by treatment with compounds. Cells were fixed in chilled 4% PFA for 10 min followed by washes in PBS. […] Following PBS washes, cells were blocked using blocking buffer (PBS, 5% BSA, 0.1% Tween20) for 1 h at room temperature. Primary antibodies were diluted in blocking buffer and added to cells to be incubated overnight at 4° C. Cells were subsequently washed with PBS-T and the appropriate secondary antibodies (diluted in blocking buffer) were added for 2 h at room temperature in darkness. 10 μg/ml of Hoechst 33258 stain was added with secondary antibodies when required. Cells were again washed with PBS-T followed by addition of PBS with 0.02% sodium azide. Cells were then stored at 4° C. until ready for imaging. Primary antibodies used for immunofluorescence are as follows: Phospho-Ub Ser 65 (Sigma-Aldrich cat #ABS1513-1), TOM20 (Santa-Cruz cat #sc-17764). Secondary antibodies and stains used in immunofluorescence; Anti-IgG2a Alexa Fluor™ 546 (ThermoFisher cat #A21133) Anti-rabbit Alexa Fluor™ 647 (ThermoFisher cat #A21244), Hoechst 33258 stain (Sigma-Aldrich cat #B2883).
(§2) Confocal microscopy was performed using a Zeiss LSM800 w/Airyscan fluorescent microscope equipped with lasers emitting at 405 nm, 488 nm, 561 nm and 640 nm. All images were captured using a 40x oil immersion objective lens and processed using Zeiss ZEN software. Images were analysed and quantified using Columbus (PerkinElmer) and TIBCO Spotfire software.
(§3) First, HeLa cells transfected with YFP-parkin were either left untreated or treated with 50 μM kinetin riboside, nucleosides 9a and 9c for 24 h.

Ub Ser65 phosphorylation [3] = test: Immunofluorescence for Ub Ser65 phosphorylation in YFP-parkin transfected HeLa cells; format: cell-based
Procedure: as §1, §2, §3

PINK1 [4] = biological target: T1, PINK1 (Homo sapiens, UniProt Q9BXM7); test: PINK1 activation in cells judged by parkin Ser65 phosphorylation (parkin-transfected HeLa cells); format: cell-based; conditions: 50 μM, 1 h
T1 construct: HeLa cells, which express PINK1 endogenously; endogenous in cells; host or cells: HeLa cells transiently transfected with parkin
Procedure: (§4) Both HeLa and parkin-overexpressed HeLa cells were maintained in DMEM high glucose (Gibco), 10% FBS (Sigma-Aldrich) at 37° C. with 5% CO2. For experiments, cells were counted and seeded into a range of culture plates, depending on the experiment, cell counting was done using the Cellometer Auto T4 with TrypanBlue (Gibco). […] Alternatively, HeLa cells were seeded in well plates and then transfected with […] of parkin cDNA using the PEI method once the plated cells reached 60% confluency. After 6 hours, the media was changed. Sub-culturing was done when the cells reached ˜90% confluency.
(§5) Cell culture with 70-80% confluency was lysed as follows: cells were washed with Phosphate Buffer Saline (PBS) (Sigma). 150 μl of lysis buffer was used on each well containing either: • 50 mM Tris-HCl pH 7.5, 1 mM EDTA, 1 mM EGTA, 0.27 M sucrose, 1 mM Na3VO4, 50 mM NaF, 5 mM Na pyrophosphate and fresh 1 mM benzamidine, 1% NP-40 and […]; or • 50 mM Tris-HCl pH 7.5, 1 mM EDTA, 1 mM EGTA, 10 mM Na β-glycerophosphate, 0.27 M sucrose, 1 mM Na3VO4, 50 mM NaF, 10 mM Na pyrophosphate with fresh 1 mM benzamidine, 1% Triton X-100, complete EDTA-free Protease Inhibitor, Phosphatase inhibitor cocktail 3 and 100 μM of 2-chloroacetamide.
(§6) The cells were scrapped and transferred to the microtube and eventually spun down at 12,000 rpm for 15 minutes at 4° C. Finally, the supernatant was transferred to the new microtubes and stored at −20° C. Protein concentration was measured using Bradford Assay. Serial concentrations 0.125; 0.25; 0.5 and 1 mg/ml of Bovine Serum Albumin (BSA) (Sigma Aldrich) were used as a standard. Samples were boiled at 90° C. for 5 minutes in SDS sample loading buffer.

Ub Ser65 phosphorylation [5] = test: Phospho-Ub (Ub Ser65) immunoblotting in parkin- or YFP-parkin-transfected HeLa cells; format: cell-based; conditions: immunoblot; for ubiquitin phosphorylation, niclosamide or CCCP only (controls): YFP-parkin HeLa cells, 10 μM, 1 h; for phosphorylation of Ub at Ser65, niclosamide or CCCP treatment alone (controls): 10 μM CCCP 3 h
Procedure: as §4, §5, §6
The next day membranes were washed in TBST and incubated with horse radish peroxidase (HRP)-conjugated antibodies for 1 h at room temperature with agitation. Following TBST washes, proteins were visualised using Amersham™ ECL™ Prime kit (GE Biosciences) and imaged using the Bio-rad ChemicDoc. Primary antibodies used for western blotting; GAPDH (Abcam cat #ab9485), Phospho-Ub Ser 65 (Sigma-Aldrich cat #ABS1513-1), LC3B (Cell Signaling cat #3868S). Secondary antibodies used for western blotting; anti-rabbit HRP (Agilent Dako cat #P0399), anti-mouse HRP (Agilent Dako cat #P0260).
(§7) To explore this, we first treated parkin-transfected HeLa cells for 24 h with 50 μM kinetin, kinetin riboside or kinetin riboside ProTide, a monophosphate prodrug of kinetin riboside.

PINK1 [6] = biological target: T1, PINK1; conditions: in presence of the de-polarizing agent CCCP; cited from earlier work
OPA1 = OPA1 cleavage immunoblot (mitochondrial membrane depolarization) in parkin-transfected HeLa cells; format: cell-based; conditions: 10 μM CCCP 3 h
Procedure: as §4, §5, §6, §7

[7] = system: HeLa cells transfected with YFP-parkin; test: TMRM fluorescence (mitochondrial membrane potential); format: cell-based
Procedure: For assessing tetramethylrhodamine methyl ester perchlorate (TMRM) fluorescence, cell media was removed and replaced with cell media consisting of 5 nM TMRM (ThermoFisher) and 10 μg/ml Hoechst 33258 stain for 30 mins in the dark at 37° C. to allow incorporation of TMRM into mitochondria. Following PBS washes, FluoroBrite DMEM (Gibco) media was added to cells, followed by subsequent imaging using a Zeiss LSM800 microscope at 37° C. with 5% CO2.

PINK1 KO MEFs = test: MitoQC mitophagy assay, PINK1 knock-out MEF; format: cell-based; conditions: 20 μM CCCP, 24 h
Source text: (§8) With the inhibition of ubiquitin phosphorylation and parkin localisation to the mitochondria by kinetin riboside and the nucleoside analogue 9c, we next asked whether these compounds still induce mitophagy in a PINK1 dependent manner. To explore this, we employed the established MitoQC assay for measuring mitophagy in cells^11,12.

[8] = system: immortalised MEF expressing PINK1 wild-type (WT); test: MitoQC mitophagy assay, MEF expressing PINK1 wild-type; format: cell-based; conditions: 20 μM CCCP, 24 h
Source text: as §8

[9] = 50 μM, 24 h, no niclosamide or CCCP

T1 sequence (Q9BXM7 78-581): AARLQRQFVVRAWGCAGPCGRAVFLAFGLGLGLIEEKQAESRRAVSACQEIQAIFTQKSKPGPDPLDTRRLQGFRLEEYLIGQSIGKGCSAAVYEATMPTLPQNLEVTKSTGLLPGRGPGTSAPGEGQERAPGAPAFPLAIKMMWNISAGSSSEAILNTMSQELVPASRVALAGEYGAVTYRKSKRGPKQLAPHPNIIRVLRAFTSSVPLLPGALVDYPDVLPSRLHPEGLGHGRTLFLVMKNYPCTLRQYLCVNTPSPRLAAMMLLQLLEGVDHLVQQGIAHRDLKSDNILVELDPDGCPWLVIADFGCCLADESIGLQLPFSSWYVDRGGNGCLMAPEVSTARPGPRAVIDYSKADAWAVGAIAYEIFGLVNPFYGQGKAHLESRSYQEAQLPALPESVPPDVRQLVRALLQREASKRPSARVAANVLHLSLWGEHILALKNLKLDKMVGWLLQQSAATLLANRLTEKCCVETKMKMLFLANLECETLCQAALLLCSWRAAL

Compound: CNc1ncnc2c1ncn2[C@@H]1O[C@H](CO)[C@@H](O)[C@H]1O [9a, (2R,3S,4R,5R)-2-(hydroxymethyl)-5-(6-(methylamino)-9H-purin-9-yl)tetrahydrofuran-3,4-diol]
- ubiquitin Ser65 phosphorylation after pre-treatment followed by valinomycin, compared to valinomycin alone [1]: significant suppression of ubiquitin Ser65 phosphorylation
- ubiquitin Ser65 phosphorylation, compound alone [1]: increased phosphorylation
- parkin localisation to the mitochondria after pre-treatment followed by CCCP, compared to CCCP alone ([2]; 50 μM 24 h, then 10 μM CCCP): did not have a significant impact
- impact on mitochondrial fragmentation (TOM20), compound alone [2, 9]: did not have any impact
- impact on parkin localisation, compound alone [2, 9]: did not have any impact
- ubiquitin Ser65 phosphorylation after pre-treatment followed by CCCP, compared to CCCP alone (Ub Ser65 phosphorylation [3]; 50 μM 24 h, then 10 μM CCCP, immunofluorescence): did not have a significant impact
- impact on ubiquitin phosphorylation, compound alone (Ub Ser65 phosphorylation [3]; 50 μM, 24 h, no niclosamide or CCCP, immunofluorescence): did not have any impact

Compound: CC(C)(C)CNc1ncnc2c1ncn2[C@@H]1O[C@H](CO)[C@@H](O)[C@H]1O [9f, (2R3S,4R,5R)-2-(hydroxymethyl)-5-(6-(neopentylamino)-9K-purin-9-yl)tetrahydrofuran-3,4-diol]
- activation of PINK1 as judged by parkin Ser65 phosphorylation (PINK1 [4]): exhibited pronounced activation of PINK1 apart from compound 9f

Compound: c1coc(CNc2ncnc3[nH]cnc23)c1 [kinetin, reference compound]
- ubiquitin Ser65 phosphorylation after pre-treatment followed by valinomycin, compared to valinomycin alone [1]: significant suppression of ubiquitin Ser65 phosphorylation
- ubiquitin Ser65 phosphorylation, compound alone [1]: increased phosphorylation
- inhibition of CCCP-induced phosphorylation of ubiquitin by pre-treatment (Ub Ser65 phosphorylation [5]; parkin-transfected HeLa cells, 50 μM 24 h, then 10 μM CCCP 3 h): did not
- phosphorylation of ubiquitin (Ub Ser65), compound alone (Ub Ser65 phosphorylation [5]; parkin-transfected HeLa cells, 50 μM, 24 h, no CCCP): did not lead to any notable phosphorylation of ubiquitin
- PINK1 activation in cells exposed to CCCP (PINK1 [6]): enhanced PINK1 activation

Compound: O=C(Nc1ccc([N+](=O)[O-])cc1Cl)c1cc(Cl)ccc1O [niclosamide, reference compound]
- OPA1 cleavage (mitochondrial membrane depolarization), niclosamide or CCCP alone (OPA1): led to OPA1 cleavage
- ubiquitin phosphorylation, niclosamide or CCCP only (controls) (Ub Ser65 phosphorylation [5]): induced strong ubiquitin phosphorylation
- phosphorylation of Ub at Ser65, niclosamide or CCCP treatment alone (controls) (Ub Ser65 phosphorylation [5]; parkin-transfected HeLa cells): strong phosphorylation of Ub at Ser65
- mitochondrial membrane potential, niclosamide or CCCP ([7]; 10 μM, data not shown): membrane potential collapse
- phosphorylation of ubiquitin, niclosamide or CCCP alone (Ub Ser65 phosphorylation [3]; YFP-parkin HeLa cells, 10 μM, 1 h, immunofluorescence): induced significant phosphorylation of ubiquitin

Compound: carbonyl cyanide m-chlorophenyl-hydrazine [CCCP, reference compound]
- mitophagy in PINK1 KO MEFs, CCCP (PINK1 KO MEFs): not in PINK1 KO MEFs
- mitophagy in PINK1 WT MEFs, CCCP [8]: induced an increase in mitophagy
- OPA1 cleavage (mitochondrial membrane depolarization), niclosamide or CCCP alone (OPA1): led to OPA1 cleavage; also recorded: associated with cleavage of OPA1
- ubiquitin phosphorylation, niclosamide or CCCP only (controls) (Ub Ser65 phosphorylation [5]): induced strong ubiquitin phosphorylation
- phosphorylation of Ub at Ser65, niclosamide or CCCP treatment alone (controls) (Ub Ser65 phosphorylation [5]; parkin-transfected HeLa cells): strong phosphorylation of Ub at Ser65
- mitochondrial membrane potential, niclosamide or CCCP [7]: membrane potential collapse
- parkin localisation to the mitochondria, CCCP treatment alone ([2]; 10 μM CCCP): promoted parkin localisation to the mitochondria
- phosphorylation of ubiquitin, niclosamide or CCCP alone (Ub Ser65 phosphorylation [3]): induced significant phosphorylation of ubiquitin; also recorded: induced strong ubiquitin phosphorylation
